Laboratory results as given in paper PMC10176470, “Engaging a Non-catalytic Cysteine Residue Drives Potent and Selective Inhibition of Caspase-6” (Journal of the American Chemical Society, 2023).

Columns and labels:
Assay in all cases: SILAC proteomics / in-gel fluorescence, competition of probe 13-t labeling by 3a
[1] = biological target: T1, proteins of HEK293T cells transiently overexpressing caspase-6 (Homo sapiens, UniProt O60506)
T1 sequence (O60506 1-623): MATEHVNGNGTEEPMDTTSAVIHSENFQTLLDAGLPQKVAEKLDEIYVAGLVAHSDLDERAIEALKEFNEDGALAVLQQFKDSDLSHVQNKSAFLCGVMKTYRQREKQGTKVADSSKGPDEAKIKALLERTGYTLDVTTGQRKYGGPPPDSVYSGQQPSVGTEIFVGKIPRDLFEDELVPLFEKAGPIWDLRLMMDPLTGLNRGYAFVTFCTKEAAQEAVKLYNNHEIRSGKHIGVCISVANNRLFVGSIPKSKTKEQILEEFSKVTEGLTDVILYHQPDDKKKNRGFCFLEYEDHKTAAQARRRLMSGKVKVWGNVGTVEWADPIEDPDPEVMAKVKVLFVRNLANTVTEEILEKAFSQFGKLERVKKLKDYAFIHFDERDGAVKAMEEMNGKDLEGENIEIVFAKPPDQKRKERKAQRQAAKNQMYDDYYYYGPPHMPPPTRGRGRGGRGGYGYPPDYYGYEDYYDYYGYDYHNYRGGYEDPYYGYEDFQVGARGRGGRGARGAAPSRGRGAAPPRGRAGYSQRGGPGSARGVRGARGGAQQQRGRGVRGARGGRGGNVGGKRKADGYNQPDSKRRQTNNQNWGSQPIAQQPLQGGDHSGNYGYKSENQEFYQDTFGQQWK

[2] = biological target: proteins of HEK293T cells transiently overexpressing caspase-6 (Homo sapiens, UniProt P26641); details: Comp; protein EEF1G P26641
[3] = biological target: proteins of HEK293T cells transiently overexpressing caspase-6 (Homo sapiens, UniProt P35998); details: Comp; protein PSMC2 P35998
[4] = biological target: proteins of HEK293T cells transiently overexpressing caspase-6 (Homo sapiens, UniProt P36405)
[5] = biological target: proteins of HEK293T cells transiently overexpressing caspase-6 (Homo sapiens, UniProt P39748); details: Comp; protein FEN1 P39748
[6] = biological target: proteins of HEK293T cells transiently overexpressing caspase-6 (Homo sapiens, UniProt P62424); details: Comp; protein RPL7A P62424
[7] = biological target: proteins of HEK293T cells transiently overexpressing caspase-6 (Homo sapiens, UniProt P62701); details: Comp; protein RPS4X P62701
[8] = biological target: proteins of HEK293T cells transiently overexpressing caspase-6 (Homo sapiens, UniProt P62906); details: Comp; protein RPL10A P62906
[9] = biological target: proteins of HEK293T cells transiently overexpressing caspase-6 (Homo sapiens, UniProt Q04917); details: Comp; protein YWHAH Q04917
[10] = biological target: proteins of HEK293T cells transiently overexpressing caspase-6 (Homo sapiens, UniProt Q13151); details: Comp; protein HNRNPA0 Q13151
[11] = biological target: T2, proteins of HEK293T cells transiently overexpressing caspase-6 (Homo sapiens, UniProt Q8WUM4)
T2 sequence (Q8WUM4 1-868): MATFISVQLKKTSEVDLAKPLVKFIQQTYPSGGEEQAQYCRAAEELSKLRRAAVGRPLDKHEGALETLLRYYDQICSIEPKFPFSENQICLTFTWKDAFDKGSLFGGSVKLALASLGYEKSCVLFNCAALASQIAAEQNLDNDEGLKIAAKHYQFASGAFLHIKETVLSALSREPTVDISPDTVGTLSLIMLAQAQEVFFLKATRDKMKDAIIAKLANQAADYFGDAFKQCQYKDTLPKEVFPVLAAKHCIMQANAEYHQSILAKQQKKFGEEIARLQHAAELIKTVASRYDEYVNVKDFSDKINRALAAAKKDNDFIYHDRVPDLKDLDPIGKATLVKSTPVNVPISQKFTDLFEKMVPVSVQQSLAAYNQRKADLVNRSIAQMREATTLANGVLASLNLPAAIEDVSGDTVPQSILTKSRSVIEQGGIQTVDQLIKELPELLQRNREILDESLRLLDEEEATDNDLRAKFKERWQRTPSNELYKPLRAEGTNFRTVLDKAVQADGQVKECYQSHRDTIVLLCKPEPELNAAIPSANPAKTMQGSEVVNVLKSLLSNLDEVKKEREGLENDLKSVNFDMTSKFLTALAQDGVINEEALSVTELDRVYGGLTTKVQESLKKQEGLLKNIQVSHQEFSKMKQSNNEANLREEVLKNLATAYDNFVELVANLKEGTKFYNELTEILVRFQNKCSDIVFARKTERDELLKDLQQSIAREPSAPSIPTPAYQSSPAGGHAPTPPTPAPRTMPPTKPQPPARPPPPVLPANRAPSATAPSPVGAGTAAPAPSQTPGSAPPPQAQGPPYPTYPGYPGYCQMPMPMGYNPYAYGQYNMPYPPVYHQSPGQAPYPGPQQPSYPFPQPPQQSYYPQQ

[12] = protein SYNCRIP (O60506), Exp Comp, analysis C6, p 0.0625, 5 peptides
[13] = protein ARL3 (P36405), Exp Comp, analysis C6, p 0.1250, 5 peptides
[14] = protein PDCD6IP (Q8WUM4), Exp Comp, analysis C6, p 0.5000, 2 peptides

proteins of HEK293T cells transiently overexpressing caspase-6 (Homo sapiens, UniProt P36405), sequence (P36405 whole entry): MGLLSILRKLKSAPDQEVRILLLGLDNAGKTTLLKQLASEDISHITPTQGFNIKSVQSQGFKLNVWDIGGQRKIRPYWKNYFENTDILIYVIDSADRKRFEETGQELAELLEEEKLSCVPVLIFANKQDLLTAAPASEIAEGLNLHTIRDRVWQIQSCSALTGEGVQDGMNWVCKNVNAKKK
proteins of HEK293T cells transiently overexpressing caspase-6 (Homo sapiens, UniProt P26641), sequence (P26641 whole entry): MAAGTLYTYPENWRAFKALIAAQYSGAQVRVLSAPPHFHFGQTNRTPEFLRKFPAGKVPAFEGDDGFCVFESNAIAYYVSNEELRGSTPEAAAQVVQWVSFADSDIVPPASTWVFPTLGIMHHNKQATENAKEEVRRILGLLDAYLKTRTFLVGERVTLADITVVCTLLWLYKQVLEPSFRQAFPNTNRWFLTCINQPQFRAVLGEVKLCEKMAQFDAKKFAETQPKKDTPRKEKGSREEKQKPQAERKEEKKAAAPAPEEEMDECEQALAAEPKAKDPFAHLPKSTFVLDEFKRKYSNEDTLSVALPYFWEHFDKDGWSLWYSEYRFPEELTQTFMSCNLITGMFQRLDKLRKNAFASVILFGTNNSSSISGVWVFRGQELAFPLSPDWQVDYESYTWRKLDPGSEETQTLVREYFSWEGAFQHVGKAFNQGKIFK
proteins of HEK293T cells transiently overexpressing caspase-6 (Homo sapiens, UniProt Q13151), sequence (Q13151 whole entry): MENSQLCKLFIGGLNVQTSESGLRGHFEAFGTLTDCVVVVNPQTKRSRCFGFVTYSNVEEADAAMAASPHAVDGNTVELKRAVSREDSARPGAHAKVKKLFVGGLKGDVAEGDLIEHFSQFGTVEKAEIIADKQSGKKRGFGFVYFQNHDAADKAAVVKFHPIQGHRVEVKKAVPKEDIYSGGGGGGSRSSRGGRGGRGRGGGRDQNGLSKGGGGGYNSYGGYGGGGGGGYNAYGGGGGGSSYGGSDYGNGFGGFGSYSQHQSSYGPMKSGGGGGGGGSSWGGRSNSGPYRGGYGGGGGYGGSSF
proteins of HEK293T cells transiently overexpressing caspase-6 (Homo sapiens, UniProt P35998), sequence (P35998 whole entry): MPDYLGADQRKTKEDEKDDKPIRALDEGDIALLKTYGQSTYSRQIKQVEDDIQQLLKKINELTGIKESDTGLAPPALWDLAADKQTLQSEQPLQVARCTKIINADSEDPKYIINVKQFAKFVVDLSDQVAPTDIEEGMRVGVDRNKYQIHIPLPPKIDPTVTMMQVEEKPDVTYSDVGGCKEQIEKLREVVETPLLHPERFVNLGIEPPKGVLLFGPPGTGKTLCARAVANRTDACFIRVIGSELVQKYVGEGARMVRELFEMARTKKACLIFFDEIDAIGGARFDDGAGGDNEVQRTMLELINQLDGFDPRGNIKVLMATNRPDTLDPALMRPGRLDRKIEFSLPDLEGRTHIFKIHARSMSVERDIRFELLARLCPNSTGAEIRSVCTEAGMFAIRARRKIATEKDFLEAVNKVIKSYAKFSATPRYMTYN
proteins of HEK293T cells transiently overexpressing caspase-6 (Homo sapiens, UniProt P39748), sequence (P39748 whole entry): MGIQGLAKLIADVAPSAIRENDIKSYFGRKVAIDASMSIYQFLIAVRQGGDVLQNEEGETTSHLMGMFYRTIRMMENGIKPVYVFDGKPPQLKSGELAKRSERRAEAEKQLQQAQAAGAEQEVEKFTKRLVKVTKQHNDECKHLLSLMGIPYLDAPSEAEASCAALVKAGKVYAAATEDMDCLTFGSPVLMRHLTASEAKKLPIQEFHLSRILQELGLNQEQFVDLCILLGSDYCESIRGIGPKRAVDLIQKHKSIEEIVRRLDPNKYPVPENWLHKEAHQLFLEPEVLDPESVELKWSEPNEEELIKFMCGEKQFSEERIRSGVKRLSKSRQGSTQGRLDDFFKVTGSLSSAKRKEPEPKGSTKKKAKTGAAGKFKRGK
proteins of HEK293T cells transiently overexpressing caspase-6 (Homo sapiens, UniProt Q04917), sequence (Q04917 whole entry): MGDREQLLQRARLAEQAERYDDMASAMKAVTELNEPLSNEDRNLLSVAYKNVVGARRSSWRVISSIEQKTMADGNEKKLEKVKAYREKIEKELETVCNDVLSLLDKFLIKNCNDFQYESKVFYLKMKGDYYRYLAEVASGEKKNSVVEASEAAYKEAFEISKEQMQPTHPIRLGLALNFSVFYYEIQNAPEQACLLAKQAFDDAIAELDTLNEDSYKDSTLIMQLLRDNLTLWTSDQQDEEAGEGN

Compound `C=CS(=O)(=O)N1C[C@H](C(=O)Nc2ccc(OC(F)(F)F)cc2)C[C@@H](c2ccccc2)C1` [3a] has an enrich.exp.med ([1]; Comp, protein SYNCRIP O60506) of 1.48, an enrich.exp.med.lin [1, 12] of 2.7903 and an enrich.exp.med.log2 [1, 12] of 1.48. It also gave an enrich.exp.med [2] of 0.7548, an enrich.exp.med [3] of 0.924 and an enrich.exp.med ([4]; Comp, protein ARL3 P36405) of 1.0898. The enrich.exp.med.lin [4, 13] was 2.128, the enrich.exp.med.log2 [4, 13] was 1.0898 and the enrich.exp.med [5] was 0.6295. The enrich.exp.med [6] was 0.707, the enrich.exp.med [7] was 0.5823 and the enrich.exp.med [8] was 0.678. For the same compound, the enrich.exp.med [9] was 0.8526, the enrich.exp.med [10] was 0.7909 and the enrich.exp.med ([11]; Comp, protein PDCD6IP Q8WUM4) was 1. For the same compound, the enrich.exp.med.lin [11, 14] was 2 and the enrich.exp.med.log2 [11, 14] was 1.
